Measurements: publication PMC11859928, “Design, Synthesis, and Antiproliferative Activity of Novel Indole/1,2,4-Triazole Hybrids as Tubulin Polymerization Inhibitors” (Pharmaceuticals, 2025)

Assays:
Experiment in all cases: NCI one-dose assay
Type in all cases: cell-based
SR = conditions: Homo sapiens, Leukemia, read-out: Cell growth inhibition %
CCRF-CEM = conditions: Homo sapiens, Leukemia, read-out: Cell growth inhibition %
CAKI-1 = conditions: Homo sapiens, CAKI-1, Renal cancer, read-out: Cell growth inhibition %
NCI-H226 = conditions: Homo sapiens, NCI-H226, Non-small cell lung cancer, read-out: Cell growth inhibition %
OVCAR-4 = conditions: Homo sapiens, OVCAR-4, Ovarian cancer, read-out: Cell growth inhibition %
OVCAR-3 = conditions: Homo sapiens, OVCAR-3, Ovarian cancer, read-out: Cell growth inhibition %
MDA-MB-435 = conditions: Homo sapiens, MDA-MB-435, Melanoma, read-out: Cell growth inhibition %
SF-539 = conditions: Homo sapiens, SF-539, CNS cancer, read-out: Cell growth inhibition %
DU-145 = conditions: Homo sapiens, DU-145, Prostate cancer, read-out: Cell growth inhibition %
SK-MEL-2 = conditions: Homo sapiens, SK-MEL-2, Melanoma, read-out: Cell growth inhibition %
PC-3 = conditions: Homo sapiens, PC-3, Prostate cancer, read-out: Cell growth inhibition %
NCI-H23 = conditions: Homo sapiens, NCI-H23, Non-small cell lung cancer, read-out: Cell growth inhibition %
OVCAR-8 = conditions: Homo sapiens, OVCAR-8, Ovarian cancer, read-out: Cell growth inhibition %
ACHN = conditions: Homo sapiens, Renal cancer, read-out: Cell growth inhibition %
SNB-19 = conditions: Homo sapiens, SNB-19, CNS cancer, read-out: Cell growth inhibition %
MDA-MB-468 = conditions: Homo sapiens, MDA-MB-468, Breast cancer, read-out: Cell growth inhibition %
SF-268 = conditions: Homo sapiens, SF-268, CNS cancer, read-out: Cell growth inhibition %
MALME-3M = conditions: Homo sapiens, Melanoma, read-out: Cell growth inhibition %
KM12 = conditions: Homo sapiens, KM12, Colon cancer, read-out: Cell growth inhibition %
SN12C = conditions: Homo sapiens, Renal cancer, read-out: Cell growth inhibition %
IGROV1 = conditions: Homo sapiens, IGROV-1, IGROV1, Ovarian cancer, read-out: Cell growth inhibition %
SK-MEL-5 = conditions: Homo sapiens, SK-MEL-5, Melanoma, read-out: Cell growth inhibition %
K-562 = conditions: Homo sapiens, K562, K-562, Leukemia, read-out: Cell growth inhibition %
NCI/ADR-RES = conditions: Homo sapiens, Ovarian cancer, read-out: Cell growth inhibition %
A549/ATCC = conditions: Homo sapiens, Non-small cell lung cancer, read-out: Cell growth inhibition %
HS 578 T = conditions: Homo sapiens, Breast cancer, read-out: Cell growth inhibition %
OVCAR-5 = conditions: Homo sapiens, OVCAR-5, Ovarian cancer, read-out: Cell growth inhibition %
SNB-75 = conditions: Homo sapiens, SNB-75, CNS cancer, read-out: Cell growth inhibition %
HOP-62 = conditions: Homo sapiens, HOP-62, Non-small cell lung cancer, read-out: Cell growth inhibition %
HCT-15 = conditions: Homo sapiens, HCT-15, Colon cancer, read-out: Cell growth inhibition %
MOLT-4 = conditions: Homo sapiens, MOLT-4, Leukemia, read-out: Cell growth inhibition %
RPMI-8226 = conditions: Homo sapiens, RPMI-8226, Leukemia, read-out: Cell growth inhibition %
COLO 205 = conditions: Homo sapiens, COLO 205, Colon cancer, read-out: Cell growth inhibition %
UACC-62 = conditions: Homo sapiens, UACC-62, Melanoma, read-out: Cell growth inhibition %
UACC-257 = conditions: Homo sapiens, UACC-257, Melanoma, read-out: Cell growth inhibition %
M14 = conditions: Homo sapiens, M14, Melanoma, read-out: Cell growth inhibition %

SMILES	inhibition at 10 µM (SR) [%]	inhibition at 10 µM (CCRF-CEM) [%]	inhibition at 10 µM (CAKI-1) [%]	inhibition at 10 µM (NCI-H226) [%]	inhibition at 10 µM (OVCAR-4) [%]	inhibition at 10 µM (OVCAR-3) [%]	inhibition at 10 µM (MDA-MB-435) [%]	inhibition at 10 µM (SF-539) [%]	inhibition at 10 µM (DU-145) [%]	inhibition at 10 µM (SK-MEL-2) [%]	inhibition at 10 µM (PC-3) [%]	inhibition at 10 µM (NCI-H23) [%]	inhibition at 10 µM (OVCAR-8) [%]	inhibition at 10 µM (ACHN) [%]	inhibition at 10 µM (SNB-19) [%]	inhibition at 10 µM (MDA-MB-468) [%]	inhibition at 10 µM (SF-268) [%]	inhibition at 10 µM (MALME-3M) [%]	inhibition at 10 µM (KM12) [%]	inhibition at 10 µM (SN12C) [%]	further results
COc1ccc(/C(CSc2nnc(-c3c[nH]c4ccccc34)n2-c2ccccc2)=N/O)cc1 [Compound 7g, (Z)-2-((5-(1H-Indol-3-yl)-4-phenyl-4H-1,2,4-triazol-3-yl)thio)-1-(4-methoxyphenyl) Ethanone Oxime]	89.1	83.5	79.9	81.8	83.2	69.5	105	42.7	57	94.1	76.9	58.4	70.3	77.7	59.7	99.4	51.5	26.9	78.8	54.2	inhibition at 10 µM (IGROV1): 56.9%; inhibition at 10 µM (SK-MEL-5): 110%; inhibition at 10 µM (K-562): 81.2%; inhibition at 10 µM (NCI/ADR-RES): 61.8%; inhibition at 10 µM (A549/ATCC): 65.8%; inhibition at 10 µM (HS 578 T): 61.2%; inhibition at 10 µM (OVCAR-5): 45%; inhibition at 10 µM (SNB-75): 36.7%; inhibition at 10 µM (HOP-62): 55%; inhibition at 10 µM (HCT-15): 84.7%; inhibition at 10 µM (MOLT-4): 83.3%; inhibition at 10 µM (RPMI-8226): 90.2%; inhibition at 10 µM (COLO 205): 63.7%; inhibition at 10 µM (UACC-62): 68.6%; inhibition at 10 µM (UACC-257): 49.9%; inhibition at 10 µM (M14): 71.1%
Cc1ccc(/C(CSc2nnc(-c3c[nH]c4ccccc34)n2-c2ccccc2)=N/O)cc1 [Compound 7h, (Z)-2-((5-(1H-Indol-3-yl)-4-phenyl-4H-1,2,4-triazol-3-yl)thio)-1-(p-tolyl)ethanone Oxime]	90.2	135	127	141	187	85.3	200	89.9	160	37.3	147	46.7	128	162	119	189	160	83.3	49.8	137	inhibition at 10 µM (IGROV1): 162%; inhibition at 10 µM (SK-MEL-5): 65.9%; inhibition at 10 µM (K-562): 98.4%; inhibition at 10 µM (NCI/ADR-RES): 168%; inhibition at 10 µM (A549/ATCC): 81.6%; inhibition at 10 µM (HS 578 T): 154%; inhibition at 10 µM (OVCAR-5): 149%; inhibition at 10 µM (SNB-75): 144%; inhibition at 10 µM (HOP-62): 157%; inhibition at 10 µM (HCT-15): 162%; inhibition at 10 µM (MOLT-4): 128%; inhibition at 10 µM (RPMI-8226): 119%; inhibition at 10 µM (COLO 205): 87.6%; inhibition at 10 µM (UACC-62): 153%; inhibition at 10 µM (UACC-257): 64.3%; inhibition at 10 µM (M14): 164%
O/N=C(\CSc1nnc(-c2c[nH]c3ccccc23)n1-c1ccccc1)c1ccc(Br)cc1 [Compound 7i, (Z)-2-((5-(1H-Indol-3-yl)-4-phenyl-4H-1,2,4-triazol-3-yl)thio)-1-(4-bromophenyl) Ethanone Oxime]	98.7	106	194	93.7	183	99.3	200	165	188	166	164	85.9	142	184	109	195	156	110	97.9	177	inhibition at 10 µM (IGROV1): 165%; inhibition at 10 µM (SK-MEL-5): 124%; inhibition at 10 µM (K-562): 111%; inhibition at 10 µM (NCI/ADR-RES): 174%; inhibition at 10 µM (A549/ATCC): 118%; inhibition at 10 µM (HS 578 T): 139%; inhibition at 10 µM (OVCAR-5): 183%; inhibition at 10 µM (SNB-75): 120%; inhibition at 10 µM (HOP-62): 155%; inhibition at 10 µM (HCT-15): 193%; inhibition at 10 µM (MOLT-4): 119%; inhibition at 10 µM (RPMI-8226): 113%; inhibition at 10 µM (COLO 205): 141%; inhibition at 10 µM (UACC-62): 190%; inhibition at 10 µM (UACC-257): 109%; inhibition at 10 µM (M14): 168%
O/N=C(\CSc1nnc(-c2c[nH]c3ccccc23)n1-c1ccccc1)c1ccc(Cl)cc1 [Compound 7j, (Z)-2-((5-(1H-Indol-3-yl)-4-phenyl-4H-1,2,4-triazol-3-yl)thio)-1-(4-chlorophenyl) Ethanone Oxime]	87.2	105	111	85.7	181	65.8	200	70.5	131	79.9	138	52.7	93.6	96.7	82.6	185	149	88.9	78.6	116	inhibition at 10 µM (IGROV1): 134%; inhibition at 10 µM (SK-MEL-5): 78.8%; inhibition at 10 µM (K-562): 93.1%; inhibition at 10 µM (NCI/ADR-RES): 170%; inhibition at 10 µM (A549/ATCC): 78.5%; inhibition at 10 µM (HS 578 T): 132%; inhibition at 10 µM (OVCAR-5): 143%; inhibition at 10 µM (SNB-75): 52%; inhibition at 10 µM (HOP-62): 164%; inhibition at 10 µM (HCT-15): 148%; inhibition at 10 µM (MOLT-4): 107%; inhibition at 10 µM (RPMI-8226): 113%; inhibition at 10 µM (COLO 205): 89.8%; inhibition at 10 µM (UACC-62): 143%; inhibition at 10 µM (UACC-257): 55.7%; inhibition at 10 µM (M14): 147%
